Consider three compounds from patent US20250027932A1, “DIFFERENTIATION OF HUMAN TISSUES WITHOUT CILIA FROM PLURIPOTENT STEM CELLS” (University of Washington, priority 2021, published 2025).

Type in all cases: cell-based, human
In experiment [1] the test system is hPSCs. Put plainly: OCT4 and BRY immunofluorescence in hPSCs after CHIR99021. Particulars: increasing doses of CHIR99021 in mTeSR1 for 48 hours; kinesin-2 knockout hPSCs, no significant difference from controls. As to the method: Cells and organoid cultures were fixed with 4% paraformaldehyde (Electron Microscopy Sciences) for 15 minutes, washed 3 times with Phosphate buffered saline (PBS, Thermo Fisher), blocked for 1 hour with blocking buffer (5% normal donkey serum and 0.3% Triton X-100 in PBS), and incubated overnight with primary antibodies including mouse acetylated α-tubulin (Sigma T7451), rabbit acetylated α-tubulin (Cell Signaling, D20G3), α-fetoprotein (AFP) (R&D MAB1368), α-smooth muscle actin (SMA) (R&D MAB1420), ZO-1 (Invitrogen, 339100), E-Cadherin (Abcam, ab11512), Nephrin (R&D, AF4269), p-Histone H3 (Santa Cruz sc-8656-R), OCT4 (Abcam ab19857), brachyury (BRY) (Santa Cruz sc-17745), SOX2 (Abcam ab97959), and 3-Tubulin III (Tuj1) (Sigma-Aldrich T2200-200UL). After washing with PBS, secondary donkey antibodies conjugated with Alexa-Fluor 488, 555, or 647 (1:500, Thermo Fisher) were applied, or Fluorescein Lotus Lectin (Vector Labs, FL-1321), with DAPI to stain the nuclei. […]
(§1) Fluorescence intensity analysis of BRY and OCT4 was performed on images processed and imaged identically, individual cells were identified automatically using Cell Profiler 2.0 and the average intensity per cell was plotted in BBP. […] Immunoblot band intensity levels were quantified using the ImageJ magic wand tool, normalized to the loading control, and pooled from multiple experiments to determine average and S.E.M. values. […]

For experiment [2], the system named is kidney organoid cultures derived from control hPSCs. Put plainly: Organoid lineage differentiation in control cultures (immunofluorescence, 96-wells). As to conditions: 1 μM SAG or 10 μM cyclopamine from day 1.5 to day 18. As to the method:
(§2) Kidney organoids were generated as previously described (Freedman, B. S. et al. Modelling kidney disease with CRISPR-mutant kidney organoids derived from human pluripotent epiblast spheroids. Nat Commun 6, 8715 (2015)). Briefly, dissociated hPSCs were plated into 96 or 24 well plates coated with 1% Geltrex (Thermo Fisher) in mTeSR1 (STEMCELL Technologies) supplemented with 10 μM Rho-kinase inhibitor Y27632 (Tocris Bioscience). The next morning, mTeSR1 containing 1.5% Geltrex was added to the wells, and the media was changed again to mTeSR1 24 hours later. 72 hours after plating, cells were treated with 12 μM CHIR99021 (Stemgent) in RPMI medium containing 1× Glutamax (Thermo Fisher) with 2 ng/ml recombinant BMP-4 (Peprotech) to induce kidney differentiation. 36 hours after treatment, the medium was changed to RPMI supplemented with B27 (RB medium, Thermo Fisher). RB medium changes were performed every three days. When indicated, organoid cultures were supplemented with 1 μM SAG or 10 μM Cyclopamine (both from Cayman Chemical) starting with the first addition of RB on day 1.5 (36 hours after CHIR99021 treatment on day 0) and maintained thereafter in RB media containing these compounds at all subsequent time points.
Cells and organoid cultures were fixed with 4% paraformaldehyde (Electron Microscopy Sciences) for 15 minutes, washed 3 times with Phosphate buffered saline (PBS, Thermo Fisher), blocked for 1 hour with blocking buffer (5% normal donkey serum and 0.3% Triton X-100 in PBS), and incubated overnight with primary antibodies including mouse acetylated α-tubulin (Sigma T7451), rabbit acetylated α-tubulin (Cell Signaling, D20G3), α-fetoprotein (AFP) (R&D MAB1368), α-smooth muscle actin (SMA) (R&D MAB1420), ZO-1 (Invitrogen, 339100), E-Cadherin (Abcam, ab11512), Nephrin (R&D, AF4269), p-Histone H3 (Santa Cruz sc-8656-R), OCT4 (Abcam ab19857), brachyury (BRY) (Santa Cruz sc-17745), SOX2 (Abcam ab97959), and 3-Tubulin III (Tuj1) (Sigma-Aldrich T2200-200UL). After washing with PBS, secondary donkey antibodies conjugated with Alexa-Fluor 488, 555, or 647 (1:500, Thermo Fisher) were applied, or Fluorescein Lotus Lectin (Vector Labs, FL-1321), with DAPI to stain the nuclei. Stained cells were imaged in PBS using a Nikon AIR confocal microscope or Eclipse TE wide-field microscope.

Experiment [3] relates to GLI1 in EV of hPSCs. Put plainly: GLI1 immunoblot of extracellular vesicles (EV) from hPSCs ±SAG. Particulars: SAG stimulation. On the procedure:
KIF3A^−/−, KIF3B^−/− and isogenic control hPSCs were lysed with RIPA buffer containing protease and phosphatase inhibitors (Roche). Protein concentration was determined using a Pierce BCA protein assay kit. 50 μg of total protein was separated in a 4-20% acrylamide gel (Bio-Rad) and analyzed with silver stain (Bio-Rad) or transferred onto a PDVF membrane using standard procedures. 5% milk was used as a blocking agent prior to and during immunoblotting. […]
as §1
Background: In western blotting, separated proteins are transferred to a membrane and probed.

The subject of experiment [4] is hedgehog signaling (GLI3, GLI1) in KIF3A−/− and KIF3B−/− mutants. Put plainly: GLI3 and GLI1 immunoblots of KIF3A−/− and KIF3B−/− kidney organoid cultures treated with hedgehog modulators. Particulars: for GLI3/GLI1 response to prolonged treatment: day 18, 1 μM SAG or 10 μM cyclopamine starting on day 1.5. As to the method: (§3) KIF3A^−/−, KIF3B^−/− and isogenic control hPSCs were lysed with RIPA buffer containing protease and phosphatase inhibitors (Roche). Protein concentration was determined using a Pierce BCA protein assay kit. 50 μg of total protein was separated in a 4-20% acrylamide gel (Bio-Rad) and analyzed with silver stain (Bio-Rad) or transferred onto a PDVF membrane using standard procedures. 5% milk was used as a blocking agent prior to and during immunoblotting. Blots were probed with antibodies raised against PC1 (Santa Cruz sc-130554), PC2 (Santa Cruz sc-25749), KIF3A (Abcam ab11259), KIF3B (Cell Signaling 13817), […] (Cell Signaling 4970), FLOT1 (Cell Signaling 18634), IFT88 (Proteintech 13967-1-AP), ARL13B (Proteintech 17711-1-AP), GLI1 (Cell Signaling 3538), GLI2 (Abcam ab26056), PTCH1 (Cell Signaling 8358), ALIX (Cell Signaling 2171), ANXA5 (Cell Signaling 8555), GM130 (Cell Signaling 12480), HPS70 (Cell Signaling 4876), CD9 (Cell Signaling 13174), ICAM-1 (Cell Signaling 4915), and EpCAM (Cell Signaling 2626).
Kidney organoids were generated as previously described (Freedman, B. S. et al. Modelling kidney disease with CRISPR-mutant kidney organoids derived from human pluripotent epiblast spheroids. Nat Commun 6, 8715 (2015)). Briefly, dissociated hPSCs were plated into 96 or 24 well plates coated with 1% Geltrex (Thermo Fisher) in mTeSR1 (STEMCELL Technologies) supplemented with 10 μM Rho-kinase inhibitor Y27632 (Tocris Bioscience). The next morning, mTeSR1 containing 1.5% Geltrex was added to the wells, and the media was changed again to mTeSR1 24 hours later. […]
as §1

In experiment [5] the test system is hedgehog signaling (GLI3, GLI1) in control hPSC kidney organoid cultures. Put plainly: GLI3 and GLI1 immunoblots of kidney organoid cultures from control hPSCs treated with hedgehog modulators. As to the method: as §3, §2
Fluorescence intensity analysis of BRY and OCT4 was performed on images processed and imaged identically, individual cells were identified automatically using Cell Profiler 2.0 and the average intensity per cell was plotted in BBP. Line scan analyses were conducted utilizing the Intensity Profile function in NIS Elements. A single line scan of equal length was performed on each structure, and subsequently these were averaged to generate the graphs, plotting pixel intensity values for each channel on the y-axis against the points along the line on the x-axis. Immunoblot band intensity levels were quantified using the ImageJ magic wand tool, normalized to the loading control, and pooled from multiple experiments to determine average and S.E.M. values. A two-tailed t-test for two samples with unequal variance was applied to determine significance. In cases where a treatment condition was applied, a paired t-test was performed. Statistical analyses were performed in GraphPad Prism 9 software.

Setting [6] is: 1 μM SAG starting on day 1.5, by day 4 of differentiation.
The mark [7] stands for this setting: day 18, prolonged 16.5 day treatment, 1 μM SAG.

As for `Cc1c[nH]c(-c2cnc(NCCNc3ccc(C#N)cn3)nc2-c2ccc(Cl)cc2Cl)n1` [CHIR99021], the “brachyury (BRY) immunofluorescence” value in experiment [1] was “dose-dependent upregulation”.

`CNC1CCC(N(Cc2cccc(-c3ccncc3)c2)C(=O)c2sc3ccccc3c2Cl)CC1` (stereo not shown) [SAG]: in experiment [2], the “Kidney organoid differentiation (nephron organoids per well)” value is “impaired”, the “Neuron differentiation (TUJ1+)” value is listed as “significantly suppressed” and the “SOX2+ neuronal progenitor cells” value was “increased”. The “GLI1 in EV” value in experiment [3] (control or PKD1−/− hPSCs) was “increased after SAG stimulation”. Besides, in experiment [3] (kinesin-2 knockouts), the “GLI1 in EV” value is reported as “undetectable”. In experiment [4] (1 μM SAG starting on day 1.5), the “effect on GLI3 or GLI1 levels” value was “no detectable effect”. In experiment [4], the “GLI3/GLI1 response to prolonged treatment” value is “failed to respond”. For the same compound, in experiment [5] (setting [6]), the GLI1 levels entry was “increased levels” and the GLI3R levels result is listed as “reduced levels”. Also, in experiment [5] (setting [7]), the GLI1 entry is recorded as “upregulated” and the GLI3 result is “strongly downregulated”.

`CC1=C2C[C@H]3[C@@H](CC=C4C[C@@H](O)CC[C@@]43C)[C@@H]2CC[C@]12O[C@@H]1C[C@H](C)CN[C@H]1[C@H]2C` [cyclopamine]: in experiment [2], the “Neuron differentiation (TUJ1+)” value is reported as “did not reach statistical significance” and the “SOX2+ neuronal progenitor cells” value is listed as “strong inhibitory effect”. Besides, in experiment [4], the “GLI3/GLI1 response to prolonged treatment” value was “failed to respond”. Further, the GLI3R entry in experiment [5] (day 18, 10 μM cyclopamine starting on day 1.5) is listed as “modestly increased”.
